Tests used:
[1] = Pharmacokinetical investigations after intravenous or oral administration; type: in vivo; conditions: male Wistar rat
Protocol: Pharmacokinetical Investigations
The pharmacokinetics of the active substances are investigated after intravenous or oral administration of doses in the range from 1 mg/kg intravenously and 3 mg/kg orally to three male Wistar rats per administration route. In order to make a repeated removal of blood possible a catheter is implanted into the jugular vein of the animals on the day before the experiment. The substances are administered intravenously as well as orally as a solution. Thereby, in most cases a plasma formulation (rat plasma with 1-2% ethanol or DMSO, 2 ml/kg) is used for the intravenous administration and a PEG formulation (10% ethanol, 40% PEG 400, 50% water, 5 ml/kg) is used for the oral administration.
After the administration of the active substance blood samples are collected over 24 h via the catheter into heparin-containing sample tubes. Subsequently to the removal of blood the blood samples are centrifuged and the plasma supernatant is pipetted into Eppendorf tubes. The plasma samples are stored at least −15° C. until the analysis takes place.
For the work-up the samples are thawed. The plasma proteins are subsequently precipitated by the addition of acetonitrile which comprises an internal standard. As internal standard a substance from the same structural class is selected which is structurally as similar as possible to the active compound. For the preparation of calibration samples different concentrations of the active substance are added to aliquots of empty plasma and these are worked up together with the unknown samples. Additionally quality control samples with three different concentrations are prepared which serve to validate the analytical procedure.
The determination of the active substance in the samples takes place by high performance liquid chromatography with mass spectrometrical detection (LC/MS-MS). The active substance concentrations in the unknown samples are determined based on their relative peak heights or areas compared to the calibration curve using the program Concalc for Windows (CCW, Integrierte Labordatensysteme, version 2.5 or later, Bayer AG). Subsequently, the pharmacokinetical parameters are calculated from the plasma concentration development over time individualized to an animal using non-compartimental analysis with the aid of the program KINCALC, version 2.50.02 (Bayer AG, 2001).
The following data can be acquired from these tests:
AUC=total area under the drug-concentration over time curve;
Cmax=maximum concentration;

[2] = system: HCMV; assay: Anti-HCMV cytopathogenicity test (CPE inhibition); type: cell-based, human cytomegalovirus; conditions: for EC50: Human betaherpesvirus 5, 144 h, HCMV-infected NHDF cells, M.O.I. 0.001-0.003, 6 days, inhibition of CPE by 50%; for SI HCMV: selectivity index = CC50 (NHDF)/EC50 (HCMV)
Protocol: (§1) Anti-HCMV (Anti-Human Cytomegalovirus) Cytopathogenicity Tests The test compounds are employed as 50 millimolar (mM) solutions in dimethyl sulfoxide (DMSO). Ganciclovir® serves as reference compound. After the addition of 2 μl of the 50, 5, 0.5 and 0.05 mM DMSO stock solutions respectively to 98 μl portions of cell culture medium in row […] for duplicate determinations, 1:2 dilutions are carried out with 50 μl portions of medium up to row 11 of the 96-well plate. The wells in rows 1 and 12 each contain 50 μl of medium. 150 μl of a suspension of 1×10^4 cells (human prepuce fibroblasts [NHDF]) are then pipetted into each of the wells (row 1=cell control) and, in rows 2-12, a mixture of HCMV-infected and uninfected NHDF cells (M.O.I.=0.001-0.003), i.e. 1-3 infected cells per 1000 uninfected cells. Row 12 (without substance) serves as virus control. The final test concentrations are […]. The plates are incubated at 37° C./5% CO2 for 6 days, i.e. until all the cells in the virus controls are infected (100% cytopathogenic effect [CPE]). The wells are then fixed and stained by the addition of a mixture of formalin and Giemsa's dye (30 min), washed with bidistilled water and dried in a drying oven at 50° C. The plates are then assessed visually using an overhead microscope (plaque multiplier from Technomara). The following data can be obtained from the test plates: EC50 (HCMV)=substance concentration in MM which inhibits the CPE (cytopathic effect) by 50% in comparison with the untreated virus control; SI (selectivity index)=CC50 (NHDF)/EC50 (HCMV).

[3] = Anti-HCMV cytopathogenicity test, cytostatic effect on uninfected cells; type: cell-based; conditions: human, NHDF cells (human prepuce fibroblasts), 6 days incubation, visual assessment
Protocol: as §1, with “plates: CC50 (NHDF)=substance” for “plates: EC50 (HCMV)=substance”, “MM at” for “MM”, “which no visible cytostatic effects on” for “which inhibits”, “the cells are evident” for “the CPE (cytopathic effect) by 50%”, “untreated cell” for “untreated virus”, “control;” for “control; SI (selectivity index)=CC50 (NHDF)/EC50 (HCMV).”

[4] = 3 mg/kg p.o., solution in 10% ethanol, 40% PEG 400, 50% water, 5 ml/kg

| Structure (SMILES) | half-life ([1]; iv, 1.3 mg/kg i.v., solution in rat plasma with 1% DMSO, 2 ml/kg) [h] | clearance ([1]; iv, 1.3 mg/kg i.v., solution in rat plasma with 1% DMSO, 2 ml/kg, read-out: CLPlasma (converted)) [mL/min/kg] | Vd ([1]; iv, 1.3 mg/kg i.v., solution in rat plasma with 1% DMSO, 2 ml/kg, read-out: Vss) [L/kg] | CLBlood ([1]; 1.3 mg/kg i.v., solution in rat plasma with 1% DMSO, 2 ml/kg) [mL/min/kg] | AUCnorm, p.o. [1, 4] [kg·h/L] | Cmax, norm, p.o. [1, 4] [kg/L] | bioavailability ([1]; plasma, po, 3 mg/kg p.o., solution in 10% ethanol, 40% PEG 400, 50% water, 5 ml/kg, read-out: F (bioavailability)) [%] | EC50 [2] [µM] | SI HCMV [2] | CC50 at 6 days [3] [µM] |
| --- | --- | --- | --- | --- | --- | --- | --- | --- | --- | --- |
| N#CC1(C(=O)Nc2cc(F)cc(NS(=O)(=O)c3ccc(-c4noc(-c5cccc(N)n5)n4)cc3)c2)CC1 [Example 1, N-{3-[({4-[5-(6-Aminopyridin-2-yl)-1,2,4-oxadiazol-3-yl]phenyl}sulfonyl)amino]-5-fluorophenyl}-1-cyanocyclopropanecarboxamide] | 4.26 | 1.07 | 0.321 | 2.13 | 8.58 | 1.08 | 55.3 | 0.011 | 6450 | 71 |
| N#CC1(C(=O)Nc2cccc(NS(=O)(=O)c3ccc(-c4noc(-c5cccc(N)n5)n4)cc3)c2)CC1 [Example 2, N-{3-[({4-[5-(6-Aminopyridin-2-yl)-1,2,4-oxadiazol-3-yl]phenyl}sulfonyl)amino]phenyl}-1-cyanocyclopropanecarboxamide] |  |  |  |  |  |  |  | 0.007 | 20140 | 141 |
| Cc1c(NC(=O)C2(C#N)CC2)cccc1NS(=O)(=O)c1ccc(-c2noc(-c3cccc(N)n3)n2)cc1 [Example 3, N-{3-[({4-[5-(6-Aminopyridin-2-yl)-1,2,4-oxadiazol-3-yl]phenyl}sulfonyl)amino]-2-methylphenyl}-1-cyanocyclopropanecarboxamide] |  |  |  |  |  |  |  | 0.002 | 51000 | 102 |
| Cl.N#CC1(C(=O)Nc2cccc(NS(=O)(=O)c3ccc(C#Cc4cccc(N)n4)cc3)c2)CC1 [Example 4, N-{3-[({4-[(6-Aminopyridin-2-yl)ethynyl]phenyl}sulfonyl)amino]phenyl}-1-cyanocyclopropanecarboxamide Hydrochloride] |  |  |  |  |  |  |  | 0.021 | 2240 | 47 |
| CC(=O)Nc1cccc(-c2nc(-c3ccc(S(=O)(=O)Nc4cc(F)cc(NC(=O)C5(C#N)CC5)c4)cc3)no2)n1 [Example 5, N-{3-[({4-[5-(6-Acetylaminopyridin-2-yl)-1,2,4-oxadiazol-3-yl]phenyl}sulfonyl)amino]-5-fluorophenyl}-1-cyanocyclopropanecarboxamide] |  |  |  |  |  |  |  | 0.026 | 2730 | 71 |

Source: patent US8318761B2, “Substituted arylsulfonamides as antiviral agents” (Aicuris GmbH & Co. KG, priority 2006, dated 2012)
